In PMC6108835, “Target-Based Discovery of an Inhibitor of the Regulatory Phosphatase PPP1R15B” (Cell, 2018):

Key:
[1] = system: R15a −/− cells; assay: eIF2α phosphorylation and translation rates in R15a −/− MEF cells; type: cell-based, mouse; conditions: R15a −/− cells (genetic inactivation of R15A), 10 μM
Method: HeLa or MEF cells (90,000 cells/mL) were plated in 12-well plates (1 mL/well). The following day cells were treated as indicated; the medium was removed, fresh medium containing compound added and incubated at 37°C for the times indicated. The time course was performed in reverse order to facilitate collecting all samples at the same time. At the end of treatment cells were washed two times with ice-cold PBS and lysed in 150 μL Laemmli Buffer. Lysates were transferred to 1.5 mL eppendorf tubes, boiled at 95°C for 5 min, sonicated and resolved on Bolt SDS-PAGE 4%–12% Bis-Tris gels (ThermoFisher Scientific). Proteins were transferred to the nitrocellulose membrane using the iBlot 2 system (ThermoFisher Scientific). Membrane was blocked in 5% skimmed milk for 30 min and then probed with primary antibodies followed by incubation with the appropriate horseradish peroxidase-conjugated secondary antibodies (Promega). Proteins were visualized using ECL Prime (GE Healthcare) and imaged in the Chemi-Smart 5000 (Vilber-Lourmat, France) or ChemiDoc Touch (BioRad). Bands were quantified using ImageJ (NIH, USA). […]
HeLa or MEF cells (90,000 cells/mL) were plated in 12-well plates (1 mL/well). […] The gels were then exposed to a Storage Phosphor Screen (GE Healthcare) and analyzed by phosphorimaging using a Typhoon Imager Scanner (GE Healthcare).

[2] = target: T1, R15B (Homo sapiens, UniProt Q5SWA1); assay: R15B levels on immunoblots of HeLa cell lysates; type: cell-based; conditions: HeLa cells, Raphin1 10 μM
T1 construct: endogenous in cells; host or cells: HeLa
T1 sequence (Q5SWA1 1-713): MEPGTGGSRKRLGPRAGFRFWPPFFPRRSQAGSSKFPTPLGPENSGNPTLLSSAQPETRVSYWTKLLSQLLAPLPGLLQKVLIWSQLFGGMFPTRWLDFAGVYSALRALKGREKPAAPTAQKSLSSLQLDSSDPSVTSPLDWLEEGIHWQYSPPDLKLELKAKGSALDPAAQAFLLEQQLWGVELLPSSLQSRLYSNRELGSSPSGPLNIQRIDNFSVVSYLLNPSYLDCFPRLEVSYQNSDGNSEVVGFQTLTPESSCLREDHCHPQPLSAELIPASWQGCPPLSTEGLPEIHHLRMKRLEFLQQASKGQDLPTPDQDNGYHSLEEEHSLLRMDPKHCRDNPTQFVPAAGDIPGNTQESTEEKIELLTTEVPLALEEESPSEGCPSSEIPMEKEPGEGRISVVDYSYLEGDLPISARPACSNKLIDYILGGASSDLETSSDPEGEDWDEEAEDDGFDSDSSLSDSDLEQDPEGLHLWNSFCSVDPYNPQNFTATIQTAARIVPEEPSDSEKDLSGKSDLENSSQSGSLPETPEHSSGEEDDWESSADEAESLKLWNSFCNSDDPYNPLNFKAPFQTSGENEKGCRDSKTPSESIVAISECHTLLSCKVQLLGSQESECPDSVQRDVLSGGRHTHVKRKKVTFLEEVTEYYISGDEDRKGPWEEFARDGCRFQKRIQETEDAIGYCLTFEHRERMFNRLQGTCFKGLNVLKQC
Method: HeLa or MEF cells (90,000 cells/mL) were plated in 12-well plates (1 mL/well). The following day cells were treated as indicated; the medium was removed, fresh medium containing compound added and incubated at 37°C for the times indicated. The time course was performed in reverse order to facilitate collecting all samples at the same time. At the end of treatment cells were washed two times with ice-cold PBS and lysed in 150 μL Laemmli Buffer. […] Proteins were transferred to the nitrocellulose membrane using the iBlot 2 system (ThermoFisher Scientific). Membrane was blocked in 5% skimmed milk for 30 min and then probed with primary antibodies followed by incubation with the appropriate horseradish peroxidase-conjugated secondary antibodies (Promega). Proteins were visualized using ECL Prime (GE Healthcare) and imaged in the Chemi-Smart 5000 (Vilber-Lourmat, France) or ChemiDoc Touch (BioRad). Bands were quantified using ImageJ (NIH, USA).

[3] = system: wild-type mice; assay: Fear conditioning; type: in vivo, mouse; conditions: 2 mg/kg for 3 weeks
Method: Morris water maze and the following fear conditioning were performed on C57BL/6J wild-type males aged 2.5 months. Mice were treatment- and test-naive before the treatment started. Treatment with Raphin1 started two weeks before and was continued during the behavioral tests.
Testing was performed in polymodal operant chambers (Coulbourn Instruments, Allentown, PA, USA). Each chamber (18.5 × 18 × 21.5 cm) consisted of aluminum side walls and Plexiglas rear and front (the door) walls. A loudspeaker and a bright light constituted the sources of the cues during conditioning and cue-testing. The general activity of animals was recorded through the infrared cell placed at the ceiling of the chambers and was directly recorded using the Graphic State software (Coulbourn). For conditioning, mice were allowed to acclimate for 4 min, then a light/tone (10 kHz) – Conditioned Stimulus (CS) was presented for 20 s and co-terminated by a mild (1 s, 0.4 mA) footshock – an aversive Unconditioned Stimulus (US). Mice were returned to their home cages 2 min later. Testing was performed 24 hr following conditioning session. Testing for the context was performed in the morning. […] For both context and cue testing the percentage of time spent in the immobile position (% Freezing) was scored as an indicator of fear memory.

[H]/N=C(\N)NN=Cc1cccc(Cl)c1Cl [Raphin1, (E)-2-(2,3-dichlorobenzylidene)hydrazine-1-carboximidamide]
Raphin1-induced eIF2α phosphorylation and translation attenuation [1]: persisted
R15B levels [2]: significantly decreased
Adverse effects on memory, fear-conditioning paradigm [3]: no adverse effects
